From patent publication US9981999B2, “Neprilysin inhibitors” (THERAVANCE BIOPHARMA R&D IP, LLC, priority 2012, dated 2018)

Target: T1, human neprilysin (EC 3.4.24.11; NEP) (Homo sapiens, UniProt P08473)
T1 construct: purchased R&D Systems, Minneapolis, MN 1182-ZN
Experiment: In vitro enzyme inhibition assay at human NEP (fluorogenic peptide substrate)
Assay type: biochemical
Conditions: recombinant human NEP; fluorogenic substrate Mca-D-Arg-Arg-Leu-Dap-(Dnp)-OH; 37° C., pH 7.5; read-out: pKi value at human NEP (converted)
Experimental: The inhibitory activities of compounds at human and rat neprilysin (EC 3.4.24.11; NEP) and human angiotensin converting enzyme (ACE) were determined using in vitro assays as described below.
Recombinant human NEP and recombinant human ACE were obtained commercially (R&D Systems, Minneapolis, MN, catalog numbers 1182-ZN and 929-ZN, respectively). The fluorogenic peptide substrate Mca-D-Arg-Arg-Leu-Dap-(Dnp)-OH (Medeiros et al. (1997) Braz. J. Med. Biol. Res. 30:1157-62; Anaspec, San Jose, Calif.) and Abz-Phe-Arg-Lys(Dnp)-Pro-OH (Araujo et al. (2000) Biochemistry 39:8519-8525; Bachem, Torrance, Calif.) were used in the NEP and ACE assays respectively.
The assays were performed in 384-well white opaque plates at 37° C. using the fluorogenic peptide substrates at a concentration of 10 µM in Assay Buffer (NEP: 50 mM HEPES, pH 7.5, 100 mM NaCl, 0.01% polyethylene glycol sorbitan monolaurate (Tween-20), 10 μM ZnSO4; ACE: 50 mM HEPES, pH 7.5, 100 mM NaCl, 0.01% Tween-20, 1 μM ZnSO4).
Test compounds were assayed over the range of concentrations from […] to 20 μM. Test compounds were added to the enzymes and incubated for 30 minute at 37° C. prior to initiating the reaction by the addition of substrate. […]
Plates were read on a fluorometer with excitation and emission wavelengths set to 320 nm and 405 nm, respectively. […]

T1 sequence (P08473 52-750 limits assumed): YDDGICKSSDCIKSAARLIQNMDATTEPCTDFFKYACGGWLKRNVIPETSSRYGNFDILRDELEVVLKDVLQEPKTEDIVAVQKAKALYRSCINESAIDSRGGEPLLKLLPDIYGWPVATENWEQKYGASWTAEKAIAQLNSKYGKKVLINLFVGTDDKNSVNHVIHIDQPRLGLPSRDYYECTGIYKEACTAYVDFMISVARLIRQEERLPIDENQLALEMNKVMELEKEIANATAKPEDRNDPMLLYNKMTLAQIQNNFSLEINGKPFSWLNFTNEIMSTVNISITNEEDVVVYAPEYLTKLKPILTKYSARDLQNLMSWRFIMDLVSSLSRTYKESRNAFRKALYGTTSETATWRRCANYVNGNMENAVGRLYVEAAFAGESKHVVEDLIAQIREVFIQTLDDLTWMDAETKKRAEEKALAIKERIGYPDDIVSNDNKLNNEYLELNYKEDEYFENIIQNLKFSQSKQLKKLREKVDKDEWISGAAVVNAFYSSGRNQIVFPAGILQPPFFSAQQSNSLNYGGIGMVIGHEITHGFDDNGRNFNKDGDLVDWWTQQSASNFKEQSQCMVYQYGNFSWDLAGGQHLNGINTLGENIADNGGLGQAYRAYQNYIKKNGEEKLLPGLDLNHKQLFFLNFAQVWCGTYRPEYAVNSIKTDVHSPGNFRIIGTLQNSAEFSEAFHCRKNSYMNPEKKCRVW

For `CC(=O)c1cc(C(=O)NN(Cc2ccc(-c3cc(Cl)ccc3F)cc2)C[C@@H](O)C(=O)O)[nH]n1` [Example 6A, (R)-3-[N′-(5-Acetyl-2H-pyrazole-3-carbonyl)-N-(5′-chloro-2′-fluorobiphenyl-4-ylmethyl)hydrazino]-2-hydroxypropionic Acid], the Ki was ≤ 1 nM.
